# Counter-ions that a name gives are not always drawn.
# Assays:
# [1] = system: Closed Head Injury (CHI) in Mice; experiment: Morris Water Maze Test after closed head injury (reference memory); conditions: retested daily for 2 weeks
# Description: Morris Water Maze Test: the water maze consists of a circular aluminium pool, im in diameter and 60 cm in depth, filled with water to a depth of 17.5 cm. The hidden goal platform is a glass vessel (15 cm diameter×16.5 cm height) placed upside down at a fixed location in the pool, 1 cm below the surface of the water. The water temperature is maintained at 24° C. and the pool is always placed in the same position in the room to provide the same extra-maze cues. […] Commencing 24 hr after CHI, mice were retested daily for 2 weeks in 3 trials per day.
# MAO-B = target: T1, MAO-B (Rattus norvegicus, UniProt P19643); experiment: Inhibition of MAO activity following sub-acute administration to rats; format: in vivo; design: from tissue; host or cells: rat brain, liver and intestine; conditions: sc, read-out: % MAO-B inhibition, Intestine, dose head prints 25 mg/kg (6 mg/kg sc) daily for 14 days
# T1 sequence (P19643 1-520): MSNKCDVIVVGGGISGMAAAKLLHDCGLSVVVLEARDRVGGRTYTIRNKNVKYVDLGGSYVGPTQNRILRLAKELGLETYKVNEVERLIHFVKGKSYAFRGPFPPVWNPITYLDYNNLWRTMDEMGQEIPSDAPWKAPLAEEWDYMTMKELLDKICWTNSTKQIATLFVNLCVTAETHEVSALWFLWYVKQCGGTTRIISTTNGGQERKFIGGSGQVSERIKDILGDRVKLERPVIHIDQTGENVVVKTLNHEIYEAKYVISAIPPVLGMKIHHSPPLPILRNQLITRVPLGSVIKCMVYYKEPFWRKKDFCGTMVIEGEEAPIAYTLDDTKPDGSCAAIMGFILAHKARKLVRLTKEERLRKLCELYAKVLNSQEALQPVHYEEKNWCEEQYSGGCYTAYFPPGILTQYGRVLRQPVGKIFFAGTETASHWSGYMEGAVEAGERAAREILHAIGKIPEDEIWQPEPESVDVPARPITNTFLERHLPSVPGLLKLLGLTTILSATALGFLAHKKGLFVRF
# Description: Substrate concentrations used were 50 μM (PEA) and 1 mM (5-HT).
# Male Sabra mice, weighing 45-50 g were injected with test compound solutions (prepared in 0.9% saline). Each dose was administered to two or three mice. The mice were sacrificed two hours after drug administration or at a time corresponding to the peak AChE inhibition time (see Table 11). The brain and liver were rapidly dissected and stored in appropriate vials on ice. The tissues were weighed, diluted to ½ in sucrose 0.3M and stored at −20° C. before performance of the MAO assay described above. The results given in Table 11 relate to measurements made on brain tissue only.
# Experiments were done in Sprague Dawley male rats. […] At the end of this period animals were sacrificed and MAO levels determined in the brain, liver and intestines.
smiles,measurement,setting,value
CCN(C)C(=O)Oc1ccc2c(c1)C(NC)CC2 (stereo not drawn) [Compound 10],"reduction in latency to find the platform, Morris Water Maze, compared to saline treated controls","[1]; 15 mg/kg, FIG. 1",Memory is enhanced
"C#CCNC1CCc2ccc(OC(=O)N(C)C)cc21 (stereo not drawn) [Compound 24, 6-(N,N-Dimethylcarbamyloxy)-N-propargyl aminoindan mesylate]",inhibition at 6 mg/kg,MAO-B,0%
"C#CCNC1CCc2ccc(OC(=O)N(C)CC)cc21 (stereo not drawn) [Compound 25, 6-(N-Me, N-Etcarbamyloxy) N-propargyl aminoindan, HCl]","reduction in latency to find the platform, Morris Water Maze, compared to saline treated controls","[1]; 46 mg/kg, FIG. 2",Memory is enhanced
